# In PMC5689168 (Biochemistry and Biophysics Reports, 2016):
# “And” between values parts separate entries of the source, which are not always exact repeats. Identical values can stand only once. “Also recorded” adds a separate entry of the source. Like-named read-outs stand apart in the source and are kept apart here.
# Tests used:
# [1] = molecular target: α1β2γ2 receptors; conditions: read-out: EC50 for potentiation; cited from earlier work
# [2] = molecular target: α1β3γ2 GABAA receptors (UniProt P28472+P62813); format: cell-based, rat α1, human β3, murine γ2
# [3] = system: 5HT3A receptor; conditions: cited from earlier work
# [4] = molecular target: α1β1γ2 GABAA receptors (Rattus norvegicus, UniProt P15431+P62813); format: cell-based, rat α1, rat β1, murine γ2
# [5] = cited from earlier work
# [6] = molecular target: α1β2(M286W)γ2 GABAA receptors (Rattus norvegicus, UniProt P62813+P63138, M310W); assay: Two-electrode voltage clamp on Xenopus laevis oocytes expressing mutant α1β2; format: cell-based, rat α1, rat β2, murine γ2
# [7] = molecular target: α1β2γ2 GABAA receptors (Rattus norvegicus, UniProt P62813+P63138); format: cell-based, rat α1, rat β2, murine γ2
# [8] = molecular target: α1β2 GABAA receptor (Rattus norvegicus, UniProt P62813+P63138); format: cell-based, rat α1, rat β2
# [9] = molecular target: α1β2(N265M)γ2 GABAA receptors (Rattus norvegicus, UniProt P62813+P63138, N289M); assay: Two-electrode voltage clamp on Xenopus laevis oocytes expressing mutant α1β2; format: cell-based, rat α1, rat β2, murine γ2
# α1β2(N265M)γ2 GABAA receptors, sequence (P62813 28-455): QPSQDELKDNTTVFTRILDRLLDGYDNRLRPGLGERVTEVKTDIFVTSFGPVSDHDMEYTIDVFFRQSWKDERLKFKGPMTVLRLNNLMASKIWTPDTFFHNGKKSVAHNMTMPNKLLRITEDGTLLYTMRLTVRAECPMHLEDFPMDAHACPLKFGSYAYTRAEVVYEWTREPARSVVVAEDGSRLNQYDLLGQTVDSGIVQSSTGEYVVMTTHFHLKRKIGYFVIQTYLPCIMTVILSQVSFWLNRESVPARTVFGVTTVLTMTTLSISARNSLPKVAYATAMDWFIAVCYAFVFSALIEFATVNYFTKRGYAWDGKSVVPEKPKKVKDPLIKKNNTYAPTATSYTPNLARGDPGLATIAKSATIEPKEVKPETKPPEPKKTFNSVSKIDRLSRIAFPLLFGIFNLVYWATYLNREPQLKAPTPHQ
# α1β2(N265M)γ2 GABAA receptors, sequence (P63138 25-474 N289M limits assumed): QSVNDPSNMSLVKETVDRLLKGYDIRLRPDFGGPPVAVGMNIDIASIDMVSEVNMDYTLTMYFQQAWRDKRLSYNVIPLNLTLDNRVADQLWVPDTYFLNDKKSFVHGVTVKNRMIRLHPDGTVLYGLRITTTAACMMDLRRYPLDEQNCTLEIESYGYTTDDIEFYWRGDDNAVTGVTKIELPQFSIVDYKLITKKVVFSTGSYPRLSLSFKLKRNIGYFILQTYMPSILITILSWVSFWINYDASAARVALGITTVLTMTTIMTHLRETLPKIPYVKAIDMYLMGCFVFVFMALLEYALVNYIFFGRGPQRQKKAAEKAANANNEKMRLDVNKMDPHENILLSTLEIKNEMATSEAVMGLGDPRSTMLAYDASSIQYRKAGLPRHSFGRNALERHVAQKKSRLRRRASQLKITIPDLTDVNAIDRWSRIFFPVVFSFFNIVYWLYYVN
# α1β2(N265M)γ2 GABAA receptors, sequence (P22723 39-474 partner): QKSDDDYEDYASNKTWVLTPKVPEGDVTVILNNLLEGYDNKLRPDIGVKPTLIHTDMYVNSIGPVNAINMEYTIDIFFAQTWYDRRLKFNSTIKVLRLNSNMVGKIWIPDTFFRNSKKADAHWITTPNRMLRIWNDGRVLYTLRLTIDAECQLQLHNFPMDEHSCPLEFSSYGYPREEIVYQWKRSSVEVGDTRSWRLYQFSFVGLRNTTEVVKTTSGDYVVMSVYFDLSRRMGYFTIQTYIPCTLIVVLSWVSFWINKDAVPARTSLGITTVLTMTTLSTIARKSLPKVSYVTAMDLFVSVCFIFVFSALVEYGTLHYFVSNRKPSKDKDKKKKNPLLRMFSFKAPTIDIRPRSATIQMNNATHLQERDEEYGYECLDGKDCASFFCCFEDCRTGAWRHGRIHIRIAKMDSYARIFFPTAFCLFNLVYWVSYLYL
# α1β1γ2 GABAA receptors, sequence (P62813 28-455): as the sequence (P62813 28-455) above
# α1β1γ2 GABAA receptors, sequence (P15431 26-474): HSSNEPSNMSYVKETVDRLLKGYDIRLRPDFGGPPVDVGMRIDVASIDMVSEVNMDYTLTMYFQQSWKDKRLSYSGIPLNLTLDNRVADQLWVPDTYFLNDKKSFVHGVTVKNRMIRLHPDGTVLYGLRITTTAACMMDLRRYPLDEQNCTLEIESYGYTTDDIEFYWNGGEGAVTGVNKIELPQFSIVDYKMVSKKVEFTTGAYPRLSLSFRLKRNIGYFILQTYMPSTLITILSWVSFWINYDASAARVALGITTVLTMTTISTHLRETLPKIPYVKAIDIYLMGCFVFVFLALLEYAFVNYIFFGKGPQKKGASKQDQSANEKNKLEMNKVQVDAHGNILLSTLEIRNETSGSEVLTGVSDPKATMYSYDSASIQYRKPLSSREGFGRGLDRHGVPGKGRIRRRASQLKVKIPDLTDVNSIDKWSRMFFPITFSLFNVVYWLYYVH
# α1β1γ2 GABAA receptors, sequence (P22723 39-474 partner): as the sequence (P22723 39-474 partner) above
# α1β2γ2 GABAA receptors, sequence (P62813 28-455): as the sequence (P62813 28-455) above
# α1β2γ2 GABAA receptors, sequence (P63138 25-474 limits assumed): as the sequence (P63138 25-474 N289M limits assumed) above, with M265N counted along it
# α1β2γ2 GABAA receptors, sequence (P22723 39-474 partner): as the sequence (P22723 39-474 partner) above
# α1β2 GABAA receptor, sequence (P62813 28-455): as the sequence (P62813 28-455) above
# α1β2 GABAA receptor, sequence (P63138 25-474 limits assumed): as the sequence (P63138 25-474 N289M limits assumed) above, with M265N counted along it
# α1β3γ2 GABAA receptors, sequence (P62813 28-455): as the sequence (P62813 28-455) above
# α1β3γ2 GABAA receptors, sequence (P28472 26-473): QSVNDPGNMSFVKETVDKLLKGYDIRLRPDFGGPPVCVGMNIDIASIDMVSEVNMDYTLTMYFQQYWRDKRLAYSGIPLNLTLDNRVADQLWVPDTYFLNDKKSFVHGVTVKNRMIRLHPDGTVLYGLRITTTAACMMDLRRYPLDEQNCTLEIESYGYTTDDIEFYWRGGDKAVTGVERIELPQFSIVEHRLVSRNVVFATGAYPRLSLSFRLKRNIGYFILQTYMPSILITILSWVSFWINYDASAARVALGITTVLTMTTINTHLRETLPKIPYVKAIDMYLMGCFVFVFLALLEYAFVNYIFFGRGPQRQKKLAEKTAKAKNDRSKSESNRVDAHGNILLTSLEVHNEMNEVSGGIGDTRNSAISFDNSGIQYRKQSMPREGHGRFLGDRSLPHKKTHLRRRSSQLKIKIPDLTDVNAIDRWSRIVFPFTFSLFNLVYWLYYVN
# α1β3γ2 GABAA receptors, sequence (P22723 39-474 partner): as the sequence (P22723 39-474 partner) above
# α1β2(M286W)γ2 GABAA receptors, sequence (P62813 28-455): as the sequence (P62813 28-455) above
# α1β2(M286W)γ2 GABAA receptors, sequence (P63138 25-474 M310W limits assumed): as the sequence (P63138 25-474 N289M limits assumed) above, with M265N, M286W counted along it
# α1β2(M286W)γ2 GABAA receptors, sequence (P22723 39-474 partner): as the sequence (P22723 39-474 partner) above
compound,measurement,setting,value
CC(C)c1cccc(C(C)C)c1O [propofol],EC50,[1],~2 µM
CC1(C)C=Cc2c(ccc3c2OC[C@@H](c2ccc(O)cc2O)C3)O1 [glabridin],EC50,[2],6.83 ± 3.07 µM
same,Fold decrease of GABA EC50,"[2]; α1β3γ2, 30 µM glabridin",6.8 fold
same,Direct activation by 30 µM glabridin,"[2]; α1β3γ2, 30 µM glabridin in the absence of GABA, normalized to GABA current",0.08±0.04
same,Fold potentiation by 30 µM glabridin,"[2]; α1β3γ2, 30 µM glabridin, 10 µM GABA",2.63±0.42 fold
same,Action on 5HT3A receptor channel,[3],blocker of the channel
same,EC50,[4],17.2 ± 2.64 µM
same,Fold decrease of GABA EC50,"[4]; α1β1γ2, 30 µM glabridin",4.4 fold
same,Direct activation by 30 µM glabridin,"[4]; α1β1γ2, 30 µM glabridin in the absence of GABA, normalized to GABA current",0.14±0.08
same,Fold potentiation by 30 µM glabridin,"[4]; α1β1γ2, 30 µM glabridin, 1 µM GABA",5.07±1.45 fold
same,Crossing of the blood-brain-barrier,[5],able to cross the blood-brain-barrier
same,Fold decrease of GABA EC50,[6]; 30 µM glabridin,0.75 fold
same,Fold potentiation by 30 µM glabridin,"[6]; 30 µM glabridin, 3 µM GABA",1.04±0.05 fold
same,Modulatory EC50,[6]; potentiation of current evoked by 3 µM GABA,Neither a potentiating effect nor any shift; also recorded: no potentiation
same,EC50,"[7]; Modulatory EC50, α1β2γ2, potentiation of current evoked by 3 µM GABA",6 µM and 6.3 µM
same,Concentration at which potentiation of GABA-induced currents starts,"[7]; α1β2γ2, 3 µM GABA",1 µM
same,Concentration of maximal potentiation,"[7]; α1β2γ2, 3 µM GABA",approximately 30 µM
same,Potentiating action of 30 µM glabridin in the presence of flumazenil,"[7]; α1β2γ2, 3 µM GABA, 30 µM glabridin, 1 µM flumazenil",not significantly altered
same,Fold decrease of GABA EC50,"[7]; α1β2γ2, 30 µM glabridin",12 fold and 12.3 fold
same,Direct activation by 30 µM glabridin,"[7]; α1β2γ2, 30 µM glabridin in the absence of GABA, normalized to GABA current",0.07±0.02
same,Fold potentiation by 30 µM glabridin,"[7]; α1β2γ2, 30 µM glabridin, 3 µM GABA",6.20±1.41 fold
same,Fold decrease of GABA EC50,"[7]; α1β2γ2, 30 µM glabridin, listed as Glabridin",approximately 12 fold
same,"Direct activation, share of the maximally evoked current by saturating GABA concentrations","[7]; α1β2γ2, 100 µM glabridin in the absence of GABA, n=4",up to 17±7%
same,Screening for potentiation of GABA-induced currents,"[7]; α1β2γ2, components of Glycyrrhiza at 10 µM, n=3–4",the only potentiator of the tested substances
same,Direct activation at lower concentrations,"[7]; α1β2γ2, glabridin up to 10 µM in the absence of GABA",failed to activate
same,Threshold concentration for direct activation,"[7]; α1β2γ2, in the absence of GABA",30 µM
same,Maximally induced current evoked by 1 mM GABA,"[7]; α1β2γ2, with 30 µM glabridin, p=0.055, n=4",not significantly altered
same,EC50,[8],9.63 ± 0.7 µM
same,Fold decrease of GABA EC50,"[8]; α1β2, 30 µM glabridin",1.8 fold
same,Direct activation by 30 µM glabridin,"[8]; α1β2, 30 µM glabridin in the absence of GABA, normalized to GABA current",0.11±0.05
same,Fold potentiation by 30 µM glabridin,"[8]; α1β2, 30 µM glabridin, 3 µM GABA",4.23±0.56 fold
same,EC50,[9],32.6 ± 1.52 µM
same,Fold decrease of GABA EC50,"[9]; α1β2(N265M)γ2, 30 µM glabridin",3.5 fold
